# Measurements from ChEMBL document CHEMBL6092137, “Synergistic immune augmentation enabled by covalently conjugating TLR4 and NOD2 agonists” (Eur J Med Chem, 2024).
# The source made the active and inactive calls. No cut-off for these calls is given here.
# What was measured:
# [1] = Immunostimulatory activity in mouse spleen T-lymphocytes assessed as fold increase in proportion of TNF-alpha positive secreting CD4+ cells and measured on day 42 by staining based flow cytometric analysis relative to RC529 and muramyl dipeptide combination; format: functional, T-cell
# [2] = Toxicity in immunized BALB/c mouse assessed as change in AST level measured on day 42 […]; details: in vivo, 1008 h, time 42 day
# [3] = Induction of mouse BMDC cell maturation assessed as fold increase in CD86 positive cells incubated for 18 hrs by staining based flow cytometric analysis relative to combination of RC529 and Muramyl dipeptide; format: functional
# [4] = Induction of mouse RAW264.7 cell maturation assessed as change in CD86 positive cells incubated for 18 hrs by staining based flow cytometric analysis relative to control; format: functional
# [5] = Toxicity in immunized BALB/c mouse assessed as vascular congestion in kidneys measured on day 42 by H and E staining based analysis; details: in vivo, 1008 h, time 42 day
# [6] = Toxicity in immunized BALB/c mouse assessed as vascular congestion in brain measured on day 42 by H and E staining based analysis; format: tissue-based; details: in vivo, 1008 h, time 42 day
# [7] = Induction of mouse BMDC cell maturation assessed as change in CD86 positive cells incubated for 18 hrs by staining based flow cytometric analysis relative to control; format: functional
# [8] = Immunostimulatory activity in C57BL/6 mouse BMDC cells assessed as TLR4 inhibitor mediated reduction in IL-6 level at 9.3 uM incubated for 20 hrs in presence of TAK242 by ELISA; format: functional; parameters: scale not given: the % may be the effect or the level left
# T-cell [9] = test: Immunostimulatory activity in mouse spleen T-lymphocytes assessed as fold increase in proportion of TNF-alpha and IFN-gamma double-positive secreting CD8+ cells and measured on day 42 by staining based flow cytometric analysis relative to combination of RC529 and muramyl dipeptide; format: functional; details: time 42 day
# T-cell [10] = test: Immunostimulatory activity in mouse spleen T-lymphocytes assessed as fold increase in proportion of TNF-alpha and IFN-gamma double-positive secreting CD4+ cells and measured on day 42 by staining based flow cytometric analysis RC529; format: functional; details: time 42 day
# THP-1 = test: Cytotoxicity against human THP-1 cells assessed as reduction in cell viability by MTT assay; format: toxicity, cell-based
# [11] = Toxicity in immunized BALB/c mouse assessed as inflammatory cell infiltration in liver measured on day 42 by H and E staining based analysis; details: 1008 h, time 42 day
# [12] = Toxicity in immunized BALB/c mouse assessed as inflammatory cell infiltration in heart measured on day 42 by H and E staining based analysis; format: tissue-based; details: 1008 h, time 42 day
# [13] = Induction of mouse BMDC cell maturation assessed as fold increase in CD80 and CD86 positive cells incubated for 18 hrs by staining based flow cytometric analysis relative to combination of RC529 and Muramyl dipeptide; format: functional
# [14] = Immunostimulatory activity in C57BL/6 mouse BMDC cells assessed as TLR4/NOD2 inhibitor mediated reduction in IL-6 level at 9.3 uM incubated for 20 hrs in presence of TAK242/ GSK717 by ELISA; format: functional; parameters: scale not given: the % may be the effect or the level left
# [15] = Induction of mouse BMDC cell maturation assessed as change in CD80 positive cells incubated for 18 hrs by staining based flow cytometric analysis relative to control; format: functional
# [16] = Toxicity in immunized BALB/c mouse assessed as inflammatory cell infiltration in lungs measured on day 42 by H and E staining based analysis; details: 1008 h, time 42 day
# [17] = Toxicity in immunized BALB/c mouse assessed as vascular congestion in spleen measured on day 42 by H and E staining based analysis; details: in vivo, 1008 h, time 42 day
# T-cell [18] = test: Immunostimulatory activity in mouse spleen T-lymphocytes assessed as fold increase in proportion of IFN-gamma positive secreting CD4+ cells and measured on day 42 by staining based flow cytometric analysis relative to RC529 and muramyl dipeptide combination; format: functional; details: time 42 day
# Mus musculus [19] = species on record: Mus musculus; test: Activation of adaptive immune response in ovalbumin immunized mouse model assessed as increase in IgG titers incubated for 1 hrs and measured on 28 to 42 days; format: functional, organism-based
# Mus musculus [20] = species on record: Mus musculus; test: Activation of adaptive immune response in ovalbumin immunized mouse model assessed as increase in IgG1 titers incubated for 1 hrs and measured on day 42; format: functional, organism-based
# [21] = Induction of mouse RAW264.7 cell maturation assessed as fold increase in CD80 positive cells incubated for 18 hrs by staining based flow cytometric analysis relative to combination of RC529 and Muramyl dipeptide; format: functional
# [22] = Induction of mouse RAW264.7 cell maturation assessed as fold increase in CD86 positive cells incubated for 18 hrs by staining based flow cytometric analysis relative to combination of RC529 and Muramyl dipeptide; format: functional
# [23] = Toxicity in immunized BALB/c mouse assessed as vascular congestion in liver measured on day 42 by H and E staining based analysis; details: in vivo, 1008 h, time 42 day
# [24] = Toxicity in immunized BALB/c mouse assessed as inflammatory cell infiltration in brain measured on day 42 by H and E staining based analysis; format: tissue-based; details: 1008 h, time 42 day
# [25] = Toxicity in immunized BALB/c mouse assessed as inflammatory cell infiltration in kidneys measured on day 42 by H and E staining based analysis; details: 1008 h, time 42 day
# [26] = Induction of mouse RAW264.7 cell maturation assessed as fold increase in CD80 and CD86 positive cells incubated for 18 hrs by staining based flow cytometric analysis relative to combination of RC529 and Muramyl dipeptide; format: functional
# Mus musculus [27] = species on record: Mus musculus; test: Activation of adaptive immune response in ovalbumin immunized mouse model assessed as increase in IgG2b titers incubated for 1 hrs and measured on day 42; format: functional, organism-based
# [28] = Toxicity in immunized BALB/c mouse assessed as vascular congestion in heart measured on day 42 by H and E staining based analysis; format: tissue-based; details: in vivo, 1008 h, time 42 day
# [29] = Toxicity in immunized BALB/c mouse assessed as inflammatory cell infiltration in spleen measured on day 42 by H and E staining based analysis; details: 1008 h, time 42 day
# Mus musculus [30] = species on record: Mus musculus; test: Activation of adaptive immune response in ovalbumin immunized mouse model assessed as increase in IgG2a titers incubated for 1 hrs and measured on day 42; format: functional, organism-based
# [31] = Induction of mouse BMDC cell maturation assessed as fold increase in CD80 positive cells incubated for 18 hrs by staining based flow cytometric analysis relative to combination of RC529 and Muramyl dipeptide; format: functional
# [32] = Immunostimulatory activity in C57BL/6 mouse BMDC cells assessed as TLR4 inhibitor mediated reduction in IL-6 level at 9.3 uM incubated for 20 hrs in presence of GSK717 by ELISA; format: functional; parameters: scale not given: the % may be the effect or the level left
# Mus musculus [33] = test: Induction of innate immunity in BALB/c mouse assessed as fold increase in IL-6 level in serum at 22.53 ug, ip measured after 2 hrs by ELISA; format: functional; details: dose 22.53 µg
# [34] = Toxicity in immunized BALB/c mouse assessed as change in ALT level measured on day 42 […]; details: in vivo, 1008 h, time 42 day
# [35] = Immunostimulatory activity in female BALB/c mouse spleen T-lymphocytes assessed as fold increase in proportion of Tcm in CD8+ cells and measured on day 42 by staining based flow cytometric analysis relative to combination of RC529 and Muramyl dipeptide; format: functional, T-cell; details: time 42 day
# [36] = Toxicity in immunized BALB/c mouse assessed as vascular congestion in lungs measured on day 42 by H and E staining based analysis; details: in vivo, 1008 h, time 42 day
# T-cell [37] = test: Immunostimulatory activity in mouse spleen T-lymphocytes assessed as fold increase in proportion of TNF-alpha and IFN-gamma double-positive secreting CD4+ cells and measured on day 42 by staining based flow cytometric analysis relative to muramyl dipeptide; format: functional; details: time 42 day
# [38] = Immunostimulatory activity in female BALB/c mouse spleen T-lymphocytes assessed as fold increase in proportion of Tcm in CD4+ cells and measured on day 42 by staining based flow cytometric analysis relative to combination of RC529 and Muramyl dipeptide; format: functional, T-cell; details: time 42 day
# [39] = Induction of mouse RAW264.7 cell maturation assessed as change in CD80 positive cells incubated for 18 hrs by staining based flow cytometric analysis relative to control; format: functional
# Mus musculus [40] = species on record: Mus musculus; test: Activation of adaptive immune response in ovalbumin immunized mouse model assessed as fold increase in IgG titers incubated for 1 hrs and measured on day 42 relative to combination of RC529 and Muramyl dipeptide; format: functional
structure (smiles),measurement,setting,value
CCCCCCCCCCCCCC(=O)O[C@H](CCCCCCCCCCC)CC(=O)NCCO[C@@H]1O[C@H](CNC(=O)CCc2cn(CCO[C@@H]3O[C@H](CO)[C@@H](O)[C@H](O[C@H](C)C(=O)N[C@H](C)C(=O)N[C@H](CCC(=O)O)C(N)=O)[C@H]3NC(C)=O)nn2)[C@@H](OP(=O)(O)O)[C@H](OC(=O)C[C@@H](CCCCCCCCCCC)OC(=O)CCCCCCCCCCCCC)[C@H]1NC(=O)C[C@@H](CCCCCCCCCCC)OC(=O)CCCCCCCCCCCCC,fold change (FC),[1],1.3
same,Activity,[2],Non-toxic
same,fold change (FC),[3],1.5
same,Activity,[4],29.9%
same,Activity,[5],Non-toxic
same,Activity,[6],Non-toxic
same,Activity,[7],22.4%
same,Activity,[8],98%
same,fold change (FC),T-cell [9],3.3
same,fold change (FC),T-cell [10],1.6
same,Activity,THP-1,Non-toxic
same,Activity,[11],Non-toxic
same,Activity,[12],Non-toxic
same,fold change (FC),[13],1.7
same,Activity,[14],99%
same,Activity,[15],31.5%
same,Activity,[16],Non-toxic
same,Activity,[17],Non-toxic
same,fold change (FC),T-cell [18],1.3
same,Activity,Mus musculus [19],Active
same,Activity,Mus musculus [20],Active
same,fold change (FC),[21],1.4
same,fold change (FC),[22],2.2
same,Activity,[23],Non-toxic
same,Activity,[24],Non-toxic
same,Activity,[25],Non-toxic
same,fold change (FC),[26],2.1
same,Activity,Mus musculus [27],Active
same,Activity,[28],Non-toxic
same,Activity,[29],Non-toxic
same,Activity,Mus musculus [30],Active
same,fold change (FC),[31],1.3
same,Activity,[32],58%
same,fold change (FC),Mus musculus [33],6.8
same,Activity,[34],Non-toxic
same,fold change (FC),[35],2.7
same,Activity,[36],Non-toxic
same,fold change (FC),T-cell [37],1.5
same,fold change (FC),[38],1.2
same,Activity,[39],40.4%
same,fold change (FC),Mus musculus [40],2
